Among the test systems are MDA-MB-435; NCI-H23; PC-3; SNB-19; KM12; COLO 205; MDA-N; K562; A549; U-251; HCT-15; SK-MEL-28; MCF7; TK-10; SW-620; CCRF-CEM; EKVX; MOLT-4; HCT-116; DMS-114.
What all share (assay): NCI tumour cell line growth inhibition, 48 h

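Cells were grown in 96-well plates and exposed to each compound for 48 hours at five concentrations; endpoints were interpolated linearly between bracketing concentrations, or set to the highest concentration if not reached. Abbreviation: GI50, concentration required for 50% inhibition of growth.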 Active and inactive are the calls of the source. Cut-off read from the data, not from the text of the source: active = GI50 up to about 1.1 µM and inactive = higher.

On to `c1ccc(CN2COc3c(ccc4c5c(ccc34)CN(Cc3ccccc3)CO5)C2)cc1`, for which the GI50 in the test on MDA-MB-435, with NCI-H23, in the test with PC-3, in the test on SNB-19, in the test on KM12 and in the test with COLO 205 was > 100 µM (inactive) throughout. The GI50 in the test on MDA-N was > 100 µM (inactive); in the test on K562, > 100 µM (inactive); with A549, > 100 µM (inactive); in the test on U-251, > 100 µM (inactive); in the test on HCT-15, greater than 100 µM; in the test on SK-MEL-28 it was > 100 µM (inactive). The GI50 in the test with MCF7, with TK-10, in the test on SW-620, with CCRF-CEM, in the test with EKVX and in the test with MOLT-4 was > 100 µM (inactive) each time. Also, the GI50 with HCT-116 and in the test on DMS-114 was > 100 µM (inactive) in each case.
For `COc1cccc2c1C(CO)N1C(C#N)C3CC(C(=O)O)C(C1C2)N3C` (stereo not given), the GI50 with MDA-MB-435 was 0.349 µM (active); in the test with NCI-H23, 1.57 µM (inactive); with PC-3, 0.331 µM (active); with SNB-19 it was 2.62 µM (inactive); in the test on KM12, 1.98 µM (inactive); in the test with COLO 205 it was 1.26 µM (inactive). In addition, the GI50 is 0.273 µM (active) in the test on MDA-N; 1.63 µM (inactive) in the test on K562; 7.52 µM (inactive) in the test with A549; 1.52 µM (inactive) in the test with U-251; 1.43 µM in the test on HCT-15; 1.56 µM (inactive) with SK-MEL-28. The GI50 with MCF7 was 0.272 µM (active); in the test with TK-10, 2.11 µM (inactive); in the test on SW-620, 2.71 µM (inactive); in the test on CCRF-CEM, 1.1 µM (active); in the test with EKVX it was 6.19 µM (inactive); in the test on MOLT-4 it was 1.48 µM (inactive). The GI50 in the test with HCT-116 was 1.69 µM (inactive); with DMS-114, 2.21 µM (inactive).

These data come from ChEMBL document CHEMBL1201862, “PubChem BioAssay data set” (2004).
